BindingDB's records for doi:10.1016/j.bmcl.2018.08.004 (Beijing Institute of Pharmacology and Toxicology, 2018)
Bridge positions count the residues as written; N and C are the ends. Square brackets hold non-standard residues; d marks the D form. Peptide text beside a SMILES is read from it. Phe(4-Br) = N[C@@H](Cc1ccc(Br)cc1)C(=O)O; Phe(4-Cl) = N[C@@H](Cc1ccc(Cl)cc1)C(=O)O; 1Nal = N[C@@H](Cc1cccc2ccccc12)C(=O)O; 2Nal = N[C@@H](Cc1ccc2ccccc2c1)C(=O)O; Phe(2-F) = N[C@@H](Cc1ccccc1F)C(=O)O; Cit = NC(=O)NCCC[C@H](N)C(=O)O; NMeA = CN[C@@H](C)C(=O)O; Sar = CNCC(=O)O

Test: Agonist activity at EPO receptor in human TF1 cells assessed as induction of cell proliferation after 48 hrs by MTT assay

EC50 [nM] | SMILES
31 | CC[C@H](C)[C@@H]1NC(=O)CN(C)C(=O)CNC(=O)[C@H](CCSC)NC(=O)[C@H](Cc2cnc[nH]2)NC(=O)[C@@H](NC(=O)[C@H](C)NC(=O)[C@H](Cc2ccc(O)cc2)NC(=O)[C@H](CC(C)C)NC(=O)CNC(=O)CNC(C)=O)CSSC[C@@H](C(=O)N[C@@H](CCC(N)=O)C(=O)N2CCC[C@H]2C(=O)N[C@@H](CC(C)C)C(=O)N[C@@H](CCCNC(=N)N)C(=O)N(C)CC(=O)N[C@@H](CCCCN)C(N)=O)NC(=O)[C@H](C(C)C)NC(=O)[C@H](Cc2cccc3ccccc23)NC(=O)[C@H]([C@@H](C)O)NC1=O (Ac-GGLYACHMG[Sar]IT[1Nal]VCQPLR[Sar]K-NH2; disulfide 6-15)
540 | CC[C@H](C)[C@@H]1NC(=O)[C@@H]2CCCN2C(=O)CNC(=O)[C@H](CCSC)NC(=O)[C@H](Cc2cnc[nH]2)NC(=O)[C@@H](NC(=O)[C@H](C)NC(=O)[C@H](Cc2ccc(O)cc2)NC(=O)[C@H](CC(C)C)NC(=O)CNC(=O)CNC(C)=O)CSSC[C@@H](C(=O)N[C@@H](CCC(N)=O)C(=O)N2CCC[C@H]2C(=O)N[C@@H](CC(C)C)C(=O)N[C@@H](CCCNC(=N)N)C(=O)N(C)CC(=O)N[C@@H](CCCCN)C(N)=O)NC(=O)[C@H](C(C)C)NC(=O)[C@H](Cc2ccc(Br)cc2)NC(=O)[C@H]([C@@H](C)O)NC1=O (Ac-GGLYACHMGPIT[Phe(4-Br)]VCQPLR[Sar]K-NH2; disulfide 6-15)
31 | CC[C@H](C)[C@@H]1NC(=O)[C@@H]2CCCN2C(=O)CNC(=O)[C@H](CCSC)NC(=O)[C@H](Cc2cnc[nH]2)NC(=O)[C@@H](NC(=O)[C@H](C)NC(=O)[C@H](Cc2ccc(O)cc2)NC(=O)[C@H](CC(C)C)NC(=O)CNC(=O)CNC(C)=O)CSSC[C@@H](C(=O)N[C@@H](CCC(N)=O)C(=O)N2CCC[C@H]2C(=O)N[C@@H](CC(C)C)C(=O)N[C@@H](CCCNC(N)=O)C(=O)N(C)CC(=O)N[C@@H](CCCCN)C(N)=O)NC(=O)[C@H](C(C)C)NC(=O)[C@H](Cc2cccc3ccccc23)NC(=O)[C@H]([C@@H](C)O)NC1=O (Ac-GGLYACHMGPIT[1Nal]VCQPL[Cit][Sar]K-NH2; disulfide 6-15)
11 | CC[C@H](C)[C@@H]1NC(=O)[C@@H]2CCCN2C(=O)CNC(=O)[C@H](CCSC)NC(=O)[C@H](Cc2cnc[nH]2)NC(=O)[C@@H](NC(=O)[C@H](C)NC(=O)[C@H](Cc2ccc(O)cc2)NC(=O)[C@H](CC(C)C)NC(=O)CNC(=O)CNC(C)=O)CSSC[C@@H](C(=O)N[C@@H](CCC(N)=O)C(=O)N2CCC[C@H]2C(=O)N[C@@H](CC(C)C)C(=O)N[C@@H](CCCNC(=N)N)C(=O)N(C)CC(=O)N[C@@H](CCCCN)C(N)=O)NC(=O)[C@H](C(C)C)NC(=O)[C@H](Cc2cccc3ccccc23)NC(=O)[C@H]([C@@H](C)O)NC1=O
540 | CC[C@H](C)[C@@H]1NC(=O)[C@@H]2CCCN2C(=O)CNC(=O)[C@H](CCSC)NC(=O)[C@H](Cc2cnc[nH]2)NC(=O)[C@@H](NC(=O)[C@H](C)NC(=O)[C@H](Cc2ccc(O)cc2)NC(=O)[C@H](CC(C)C)NC(=O)CNC(=O)CNC(C)=O)CSSC[C@@H](C(=O)N[C@@H](CCC(N)=O)C(=O)N2CCC[C@H]2C(=O)N[C@@H](CC(C)C)C(=O)N[C@@H](CCCNC(=N)N)C(=O)N(C)CC(=O)N[C@@H](CCCCN)C(N)=O)NC(=O)[C@H](C(C)C)NC(=O)[C@H](Cc2ccccc2F)NC(=O)[C@H]([C@@H](C)O)NC1=O (Ac-GGLYACHMGPIT[Phe(2-F)]VCQPLR[Sar]K-NH2; disulfide 6-15)
240 | CC[C@H](C)[C@@H]1NC(=O)[C@@H]2CCCN2C(=O)CNC(=O)[C@H](CCSC)NC(=O)[C@H](Cc2cnc[nH]2)NC(=O)[C@@H](NC(=O)[C@H](C)NC(=O)[C@H](Cc2ccc(O)cc2)NC(=O)[C@H](CC(C)C)NC(=O)CNC(=O)CNC(C)=O)CSSC[C@@H](C(=O)N[C@@H](CCC(N)=O)C(=O)N2CCC[C@H]2C(=O)N[C@@H](CC(C)C)C(=O)N[C@@H](CCCNC(=N)N)C(=O)N(C)CC(=O)N[C@@H](CCCCN)C(N)=O)NC(=O)[C@H](C(C)C)NC(=O)[C@H](Cc2ccc(Cl)cc2)NC(=O)[C@H]([C@@H](C)O)NC1=O (Ac-GGLYACHMGPIT[Phe(4-Cl)]VCQPLR[Sar]K-NH2; disulfide 6-15)
540 | CC[C@H](C)[C@@H]1NC(=O)[C@@H]2CCCN2C(=O)CNC(=O)[C@H](CCSC)NC(=O)[C@H](Cc2cnc[nH]2)NC(=O)[C@@H](NC(=O)[C@H](C)NC(=O)[C@H](Cc2ccc(O)cc2)NC(=O)[C@H](CC(C)C)NC(=O)CNC(=O)CNC(C)=O)CSSC[C@@H](C(=O)N[C@@H](CCC(N)=O)C(=O)N2CCC[C@H]2C(=O)N[C@@H](CC(C)C)C(=O)N[C@@H](CCCNC(=N)N)C(=O)N(C)CC(=O)N[C@@H](CCCCN)C(N)=O)NC(=O)[C@H](C(C)C)NC(=O)[C@H](Cc2ccc3ccccc3c2)NC(=O)[C@H]([C@@H](C)O)NC1=O (Ac-GGLYACHMGPIT[2Nal]VCQPLR[Sar]K-NH2; disulfide 6-15)
26 | CC[C@H](C)[C@@H]1NC(=O)[C@H](C)N(C)C(=O)CNC(=O)[C@H](CCSC)NC(=O)[C@H](Cc2cnc[nH]2)NC(=O)[C@@H](NC(=O)[C@H](C)NC(=O)[C@H](Cc2ccc(O)cc2)NC(=O)[C@H](CC(C)C)NC(=O)CNC(=O)CNC(C)=O)CSSC[C@@H](C(=O)N[C@@H](CCC(N)=O)C(=O)N2CCC[C@H]2C(=O)N[C@@H](CC(C)C)C(=O)N[C@@H](CCCNC(=N)N)C(=O)N(C)CC(=O)N[C@@H](CCCCN)C(N)=O)NC(=O)[C@H](C(C)C)NC(=O)[C@H](Cc2cccc3ccccc23)NC(=O)[C@H]([C@@H](C)O)NC1=O (Ac-GGLYACHMG[NMeA]IT[1Nal]VCQPLR[Sar]K-NH2; disulfide 6-15)
12 | CC[C@H](C)[C@@H]1NC(=O)[C@@H]2CCCN2C(=O)CNC(=O)[C@H](CCSC)NC(=O)[C@H](Cc2cnc[nH]2)NC(=O)[C@@H](NC(=O)[C@H](C)NC(=O)[C@H](Cc2ccc(O)cc2)NC(=O)[C@H](CC(C)C)NC(=O)CNC(=O)CNC(C)=O)CSSC[C@@H](C(=O)N[C@@H](CCC(N)=O)C(=O)N(C)[C@@H](C)C(=O)N[C@@H](CC(C)C)C(=O)N[C@@H](CCCNC(=N)N)C(=O)N(C)CC(=O)N[C@@H](CCCCN)C(N)=O)NC(=O)[C@H](C(C)C)NC(=O)[C@H](Cc2cccc3ccccc23)NC(=O)[C@H]([C@@H](C)O)NC1=O (Ac-GGLYACHMGPIT[1Nal]VCQ[NMeA]LR[Sar]K-NH2; disulfide 6-15)
42 | CC[C@H](C)[C@@H]1NC(=O)[C@@H]2CCCN2C(=O)CNC(=O)[C@H](CCSC)NC(=O)[C@H](Cc2cnc[nH]2)NC(=O)[C@@H](NC(=O)[C@H](C)NC(=O)[C@H](Cc2ccc(O)cc2)NC(=O)[C@H](CC(C)C)NC(=O)CNC(=O)CNC(C)=O)CSSC[C@@H](C(=O)N[C@@H](CCC(N)=O)C(=O)N(C)CC(=O)N[C@@H](CC(C)C)C(=O)N[C@@H](CCCNC(=N)N)C(=O)N(C)CC(=O)N[C@@H](CCCCN)C(N)=O)NC(=O)[C@H](C(C)C)NC(=O)[C@H](Cc2cccc3ccccc23)NC(=O)[C@H]([C@@H](C)O)NC1=O (Ac-GGLYACHMGPIT[1Nal]VCQ[Sar]LR[Sar]K-NH2; disulfide 6-15)
